Data reported in patent US7220773B2, “Pyrrole derivative” (Dainippon Sumitomo Pharma Co., Ltd., priority 2001, dated 2007).

Tested on: male db/db mice
Assay: Hypoglycemic activity in db/db mice, oral administration once a day for 2 weeks
Format: in vivo
Conditions: male db/db mice (7 to 8 weeks old), versus vehicle on last day; for inhibition in vivo at 30 mg/kg / inhibition in vivo at 100 mg/kg: Mus musculus, po, 336 h; for inhibition in vivo at 100 mg/kg: dosage 100 mg/kg orally once a day for 2 weeks in 0.5% carboxymethyl cellulose
Procedure: The test compounds described in Examples (these compound were made into a free form from a salt form, a sodium salt or calcium salt, if necessary) were dissolved or suspended in 0.5% carboxymethyl cellulose solution. Mice were forced to orally administer the test compound as to administer the total amount of 30 mg/kg or 100 mg/kg to male db/db mice (7 to 8 weeks old) once a day for 2 weeks. On last day, to the blood just taken from tail vein was added perchloric acid to remove proteins and then the blood sugar was measure by glucose CII Test Waco (Wako Pure Chemical Ind.). Hypoglycemic activity was calculated as following formula: [formula] • A: Blood sugar level of Vehicle (on last day) • B: Blood sugar level of test compound-administered group (on last day)

[1] = dosage 30 mg/kg orally once a day for 2 weeks in 0.5% carboxymethyl cellulose

SMILES	inhibition in vivo at 30 mg/kg [1]	inhibition in vivo at 100 mg/kg	other results
COc1cccc(C(=O)c2cccn2C/C=C/c2cccc(OC(C)C(=O)O)c2)c1 (stereo not drawn) [Example 63]	19%		
Cc1ccc(C(=O)c2cccn2C/C=C/c2cccc([C@@H](C)C(=O)O)c2)cc1 [Example 110]	17%		
C[C@H](Oc1cccc(/C=C/Cn2cccc2C(=O)c2ccc3c(c2)CCO3)c1)C(=O)O [Example 186]	44%		
COc1ccccc1NC(=O)c1cccn1C/C=C/c1cccc(SCC(=O)O)c1 [Example 171]		20%	
CCC(Cc1cccc(/C=C/Cn2cccc2C(=O)c2ccc(C)cc2)c1)C(=O)O (stereo not drawn) [Example 165]		68%	
C[C@H](Oc1cccc(/C=C/Cn2cccc2C(=O)c2ccc3c(c2)OCO3)c1)C(=O)O [Example 92]	46%		
Cc1ccc(C(=O)c2ccn(C/C=C/c3cccc(SC(C)C(=O)O)c3)c2)cc1 (stereo not drawn) [Example 128]		27%	
Cc1ccc(CC(=O)c2cccn2C/C=C/c2cccc(O[C@@H](C)C(=O)O)c2)cc1 [Example 191]	15%		
O=C(O)COc1cccc(/C=C/Cn2cccc2C(=O)c2ccc(Cl)cc2)c1 [Example 53]		23%	
Cc1ccc(C(=O)c2cccn2C/C=C/c2cccc(SC(C)C(=O)O)c2)cc1 (stereo not drawn) [Example 126]	56%		
Cc1ccc(NC(=O)c2cccn2C/C=C/c2cccc(SCC(=O)O)c2)cc1 [Example 135]		16%	
CC(Oc1cccc(/C=C/Cn2cccc2C(=O)c2ccc(C(F)(F)F)cc2)c1)C(=O)O (stereo not drawn) [Example 143]	21%		
Cc1ccc(C(=O)c2cccn2C/C=C/c2cccc(O[C@@H](C)C(=O)O)c2)cc1 [Example 142]		55%	
COc1ccc(C(=O)c2cc(C)cn2C/C=C/c2cccc(O[C@@H](C)C(=O)O)c2)cc1 [Example 158]	24%		
Cc1ccc(C(=O)c2cccn2C/C=C/c2cccc(O[C@H](C)C(=O)O)c2)cc1 [Example 139]		55%	
CC(Oc1cccc(/C=C/Cn2cccc2C(=O)c2cccc(Oc3ccc(C(F)(F)F)cc3)c2)c1)C(=O)O (stereo not drawn) [Example 155]	57%		
CC(Oc1cccc(/C=C/Cn2cccc2C(=O)Nc2ccc(OC(F)(F)F)cc2)c1)C(=O)O (stereo not drawn) [Example 179]	22%		
CCc1ccc(C(=O)c2cccn2C/C=C/c2cccc(O[C@@H](C)C(=O)O)c2)cc1 [Example 91]	55%		
Cc1ccc(C(=O)c2cccn2C/C=C/c2cccc(C(C)(C)C(=O)O)c2)cc1 [Example 39]		65%	
Cc1ccc(CC(=O)c2cccn2C/C=C/c2cccc(O[C@@H](C)C(=O)O)c2)cc1 [Example 201]			Hypoglycemic activity(%) [1]: 18%
Cc1ccc(C(=O)c2cccn2C/C=C/c2cccc([C@H](C)C(=O)O)c2)cc1 [Example 111]	61%		
